Reference: US8664257B2, “Oxygen-substituted 3-heteroaroylamino-propionic acid derivatives and their use as pharmaceuticals” (Sanofi, priority 2010, dated 2014)

Target: T1, Recombinant human cathepsin A (Homo sapiens, UniProt P10619)
T1 construct: Recombinant human cathepsin A (residues 29-480, with a C-terminal 10-His tag); 10-His (C); purchased R&D Systems 1049-SE
T1 sequence (P10619 29-312 limits assumed): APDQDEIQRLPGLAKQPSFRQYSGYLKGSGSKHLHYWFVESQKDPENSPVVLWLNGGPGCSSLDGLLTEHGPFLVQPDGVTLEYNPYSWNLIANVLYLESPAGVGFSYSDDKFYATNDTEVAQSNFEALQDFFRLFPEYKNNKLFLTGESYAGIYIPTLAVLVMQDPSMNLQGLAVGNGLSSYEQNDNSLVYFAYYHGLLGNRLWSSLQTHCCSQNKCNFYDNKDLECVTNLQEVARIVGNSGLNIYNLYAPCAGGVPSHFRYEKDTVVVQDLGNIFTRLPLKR
T1 sequence (P10619 327-480 limits assumed): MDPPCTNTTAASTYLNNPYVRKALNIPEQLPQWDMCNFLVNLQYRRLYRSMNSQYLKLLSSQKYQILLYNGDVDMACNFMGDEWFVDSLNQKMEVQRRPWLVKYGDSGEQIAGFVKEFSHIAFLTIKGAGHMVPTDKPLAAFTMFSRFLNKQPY
Assay: Cathepsin A inhibitory activity
Assay type: biochemical
Details: pharmacological test "Cathepsin A inhibitory activity"; IC50 given as class A/B/C; read-out: Activity (2): Cathepsin A inhibitory activity, IC50 class
In short: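 Read-out was microfluidic separation of cleaved vs. uncleaved Bodipy FL-bradykinin (2 μM), giving turnover, % inhibition and IC50. Compound and 833 ng/ml enzyme met for 15 min RT in pH 5.5 MES/DTT before substrate (15 min RT). The 29-480 His-tagged human enzyme was first activated by cathepsin L, then E-64 (10 μM).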

| IC50 [nM] | Structure (SMILES) |
| --- | --- |
| 100 to 1000 | O=C(O)CC(NC(=O)c1cc(O)n(-c2cccc(Cl)c2)n1)c1cccc(Cl)c1Cl (stereo not drawn) [Example 257] |
| < 100 | Cc1cccc(C(CC(=O)O)NC(=O)c2cc(O)n(-c3ccc(F)cc3F)n2)c1C (stereo not drawn) [Example 191] |
| 100 to 1000 | O=C(O)C[C@H](NC(=O)c1cc(O)n(-c2ccccc2Cl)n1)c1cccc(Cl)c1 [Example 214] |
| 100 to 1000 | COc1ccc(C(CC(=O)O)NC(=O)c2cc(O)n(-c3ccccc3Cl)n2)c(OC)c1 (stereo not drawn) [Example 207] |
| 1000 to 30000 | O=C(O)C[C@H](NC(=O)c1cc(O)n(-c2cccc(Cl)c2)n1)c1cccc(C(F)(F)F)c1 [Example 259] |
| 100 to 1000 | O=C(O)C[C@H](NC(=O)c1cc(O)n(-c2cccc(Cl)c2)n1)c1ccc(Cl)cc1Cl [Example 266] |
| 100 to 1000 | O=C(O)CC(NC(=O)c1cc(O)n(-c2ccccc2)n1)c1cccc(Cl)c1Cl (stereo not drawn) [Example 168] |
| 100 to 1000 | O=C(O)CC(NC(=O)c1cc(O)n(-c2ccccc2F)n1)c1cccc(C(F)(F)F)c1Cl (stereo not drawn) [Example 245] |
| 100 to 1000 | O=C(O)C[C@H](NC(=O)c1cc(O)n(-c2ccccc2Cl)n1)c1ccc(F)cc1 [Example 211] |

Same assay, conditions: read-out: Activity (2): Cathepsin A inhibitory activity (IC50 class)

| IC50 [nM] | Structure (SMILES) |
| --- | --- |
| 100 to 1000 | COc1ccccc1[C@H](CC(=O)O)NC(=O)c1cc(OC)n(-c2ccccc2F)n1 [Example 667] |
| 100 to 1000 | COc1ccc(F)c(C(CC(=O)O)NC(=O)c2cc(O)n(-c3ccccc3Cl)n2)c1 (stereo not drawn) [Example 559, 3-{[1-(2-Chloro-phenyl)-5-hydroxy-1H-pyrazole-3-carbonyl]-amino}-3-(2-fluoro-5-methoxy-phenyl)-propionic acid] |
| < 100 | CCOc1cc(C(=O)N[C@@H](CC(=O)O)c2ccc(C(F)(F)F)cc2)nn1-c1ccccc1F [Example 715] |
| < 100 | CCOc1cc(C(=O)N[C@@H](CC(=O)O)c2ccc(C)cc2)nn1-c1ccccc1F [Example 716] |
| 100 to 1000 | O=C(O)C[C@H](NC(=O)c1cc(OCC2CC2)n(-c2ccccc2F)n1)c1ccccc1C(F)(F)F [Example 701] |
| < 100 | O=C(O)CC(NC(=O)c1cc(O)n(-c2ccccc2F)n1)c1ccc(-c2ccccc2Cl)cc1 (stereo not drawn) [Example 542] |
| < 100 | Cc1ccccc1[C@H](CC(=O)O)NC(=O)c1cc(OCC(C)(C)O)n(-c2ccccc2F)n1 [Example 752] |
| < 100 | Cc1ccccc1[C@H](CC(=O)O)NC(=O)c1cc(OCC2CC2)n(-c2ccccc2F)n1 [Example 612] |
| 100 to 1000 | COc1cc(C(=O)NC(CC(=O)O)c2ccc(F)cc2)nn1-c1ccccc1F (stereo not drawn) [Example 678] |
| 100 to 1000 | CCOc1cc(C(=O)N[C@@H](CC(=O)O)c2ccc(C#N)cc2)nn1-c1ccccc1F [Example 710] |
| < 100 | O=C(O)C[C@H](NC(=O)c1cc(OCC2CC2)n(-c2ccccc2F)n1)c1cccc(Cl)c1Cl [Example 702] |
| < 100 | Cc1ccccc1[C@H](CC(=O)O)NC(=O)c1cc(OC[C@@H](O)C2CC2)n(-c2ccccc2F)n1 (single isomer, unassigned) [Example 761] |
| < 100 | Cc1ccccc1[C@H](CC(=O)O)NC(=O)c1cc(OCC(=O)N2CCCC2)n(-c2ccccc2F)n1 [Example 616] |
| < 100 | COc1cc(C(=O)N[C@@H](CC(=O)O)c2ccccc2C)nn1-c1cccc(F)c1 [Example 609] |
| 100 to 1000 | COc1cc(C(=O)N[C@@H](CC(=O)O)c2ccccc2C)nn1C(C)(C)C [Example 611] |

| Structure (SMILES) | IC50 [nM] |
| --- | --- |
| Cc1ccccc1[C@H](CC(=O)O)NC(=O)c1cc(OC[C@](C)(O)C(C)C)n(-c2ccccc2F)n1 [Example 765, (S)-3-{[1-(2-Fluoro-phenyl)-5-((R)-2-hydroxy-2,3-dimethyl-butoxy)-1H-pyrazole-3-carbonyl]-amino}-3-o-tolyl-propionic acid] | < 100 |
| CC(C)[C@@](C)(O)COc1cc(C(=O)NC(CC(=O)O)C2CCCCC2)nn1-c1ccccc1F (stereo partly drawn) [Example 786, 3-Cyclohexyl-3-{[1-(2-fluoro-phenyl)-5-((R)-2-hydroxy-2,3-dimethyl-butoxy)-1H-pyrazole-3-carbonyl]-amino}-propionic acid] | < 100 |

Same assay, conditions: read-out: Activity (2): Cathepsin A inhibitory activity, IC50 class

| IC50 [nM] | Structure (SMILES) |
| --- | --- |
| 100 to 1000 | CCCCC(CC(=O)O)NC(=O)c1cc(O)n(-c2ccccc2)n1 (stereo not drawn) [Example 14] |
| 100 to 1000 | O=C(O)CC(NC(=O)c1cc(O)n(-c2ccccc2F)n1)c1cccc(Cl)c1 (stereo not drawn) [Example 396] |
| 1000 to 30000 | Cc1ccc(C)c(-n2nc(C(=O)NC(CC(=O)O)c3cccnc3)cc2O)c1 (stereo not drawn) [Example 35] |
| 1000 to 30000 | O=C(O)CC(CCc1ccccc1)NC(=O)c1cc(O)n(-c2ccccc2)n1 (stereo not drawn) [Example 15] |
| 100 to 1000 | N#Cc1ccc([C@H](CC(=O)O)NC(=O)c2cc(O)n(-c3ccccc3)n2)cc1 [Example 101] |
| 100 to 1000 | O=C(O)CC(NC(=O)c1cc(O)n(-c2ccc(F)cc2)n1)c1ccc(-c2ccc(F)cc2)cc1 (stereo not drawn) [Example 371] |
| 1000 to 30000 | COc1ccc(C(CC(=O)O)NC(=O)c2cc(O)n(-c3ccc(F)cc3)n2)c(F)c1 (stereo not drawn) [Example 90] |
| 1000 to 30000 | Cc1ccccc1[C@H](CC(=O)O)NC(=O)c1cc(O)n(-c2ccc(Cl)cn2)n1 [Example 130] |
| 100 to 1000 | COc1ccc([C@H](CC(=O)O)NC(=O)c2cc(O)n(-c3ccccc3F)n2)cc1 [Example 398] |
| 1000 to 30000 | Cc1ccc(C)c(-n2nc(C(=O)NC(CC(=O)O)c3ccc(C#N)cc3)cc2O)c1 (stereo not drawn) [Example 52] |
| 1000 to 30000 | Cc1ccc(C)c(-n2nc(C(=O)NC(CC(=O)O)c3cccc(F)c3)cc2O)c1 (stereo not drawn) [Example 49] |

| Structure (SMILES) | IC50 [nM] |
| --- | --- |
| CC(C)(C)[C@@](C)(O)COc1cc(C(=O)NC(CC(=O)O)C2CCCCC2)nn1-c1ccccc1F (stereo partly drawn) [Example 820, 3-Cyclohexyl-3-{[1-(2-fluoro-phenyl)-5-((R)-2-hydroxy-2,3,3-trimethyl-butoxy)-1H-pyrazole-3-carbonyl]-amino}-propionic acid] | < 100 |
| Cc1ccc([C@H](CC(=O)O)NC(=O)c2cc(OC[C@](C)(O)C(C)C)n(-c3ccccc3F)n2)c(C)c1 [Example 859, (S)-3-(2,4-Dimethyl-phenyl)-3-{[1-(2-fluoro-phenyl)-5-((R)-2-hydroxy-2,3-dimethyl-butoxy)-1H-pyrazole-3-carbonyl]-amino}-propionic acid] | < 100 |
| CC(C)(C)[C@](C)(O)COc1cc(C(=O)N[C@@H](CC(=O)O)c2cccc(Cl)c2)nn1-c1ccccc1F [Example 798, (S)-3-(3-Chloro-phenyl)-3-{[1-(2-fluoro-phenyl)-5-((S)-2-hydroxy-2,3,3-trimethyl-butoxy)-1H-pyrazole-3-carbonyl]-amino}-propionic acid] | < 100 |
| CC(C)CC(CC(=O)O)NC(=O)c1cc(OC[C@](C)(O)C(C)C)n(-c2ccccc2F)n1 (stereo partly drawn) [Example 823, 3-{[1-(2-Fluoro-phenyl)-5-((R)-2-hydroxy-2,3-dimethyl-butoxy)-1H-pyrazole-3-carbonyl]-amino}-5-methyl-hexanoic acid] | 100 to 1000 |

Same assay, conditions: recombinant human cathepsin A 833 ng/ml, Bodipy FL-labeled bradykinin 2 μM, pH 5.5; read-out: CATH-A IC50

| IC50 [nM] | Structure (SMILES) |
| --- | --- |
| 391 | O=C(O)CC(NC(=O)c1cc(O)n(-c2ccccc2Cl)n1)c1cccc2c1OC(F)(F)O2 (stereo not drawn) [Example 503, 3-{[1-(2-Chloro-phenyl)-5-hydroxy-1H-pyrazole-3-carbonyl]-amino}-3-(2,2-difluoro-benzo[1,3]dioxol-4-yl)-propionic acid] |
| 731 | COc1ccc(F)c(C(CC(=O)O)NC(=O)c2cc(O)n(-c3ccccc3Cl)n2)c1 (stereo not drawn) [Example 559, 3-{[1-(2-Chloro-phenyl)-5-hydroxy-1H-pyrazole-3-carbonyl]-amino}-3-(2-fluoro-5-methoxy-phenyl)-propionic acid] |
| 80.4 | O=C(O)CC(NC(=O)c1cc(O)n(-c2ccccc2Cl)n1)c1cc(Cl)ccc1Cl (stereo not drawn) [Example 462, 3-{[1-(2-Chloro-phenyl)-5-hydroxy-1H-pyrazole-3-carbonyl]-amino}-3-(2,5-dichloro-phenyl)-propionic acid] |
| 175 | Cc1ccc(F)cc1C(CC(=O)O)NC(=O)c1cc(O)n(-c2cccc(Cl)c2)n1 (stereo not drawn) [Example 510, 3-{[1-(3-Chloro-phenyl)-5-hydroxy-1H-pyrazole-3-carbonyl]-amino}-3-(5-fluoro-2-methyl-phenyl)-propionic acid] |
| 52.4 | O=C(O)CC(NC(=O)c1cc(O)n(-c2ccccc2Cl)n1)c1ccc(-c2ccccn2)cc1 (stereo not drawn) [Example 506, 3-{[1-(2-Chloro-phenyl)-5-hydroxy-1H-pyrazole-3-carbonyl]-amino}-3-(4-pyridin-2-yl-phenyl)-propionic acid] |

Same assay, conditions: recombinant human cathepsin A; read-out: Activity (2): Cathepsin A inhibitory activity, IC50 class

| IC50 [nM] | Structure (SMILES) |
| --- | --- |
| 100 to 1000 | O=C(O)CC(NC(=O)c1cc(O)n(-c2ccccc2Cl)n1)c1cccc2c1OC(F)(F)O2 (stereo not drawn) [Example 503, 3-{[1-(2-Chloro-phenyl)-5-hydroxy-1H-pyrazole-3-carbonyl]-amino}-3-(2,2-difluoro-benzo[1,3]dioxol-4-yl)-propionic acid] |
| < 100 | O=C(O)CC(NC(=O)c1cc(O)n(-c2ccccc2Cl)n1)c1cc(Cl)ccc1Cl (stereo not drawn) [Example 462, 3-{[1-(2-Chloro-phenyl)-5-hydroxy-1H-pyrazole-3-carbonyl]-amino}-3-(2,5-dichloro-phenyl)-propionic acid] |
| 100 to 1000 | Cc1ccc(F)cc1C(CC(=O)O)NC(=O)c1cc(O)n(-c2cccc(Cl)c2)n1 (stereo not drawn) [Example 510, 3-{[1-(3-Chloro-phenyl)-5-hydroxy-1H-pyrazole-3-carbonyl]-amino}-3-(5-fluoro-2-methyl-phenyl)-propionic acid] |
| 100 to 1000 | O=C(O)CC(NC(=O)c1cc(O)n(-c2cccc(F)c2)n1)c1ccc(-c2ccccn2)cc1 (stereo not drawn) [Example 521] |
| 100 to 1000 | Cc1cccc(C(CC(=O)O)NC(=O)c2cc(O)n(-c3cccc(F)c3)n2)c1C (stereo not drawn) [Example 432] |
| 1000 to 30000 | COc1cc(C(=O)N[C@@H](CC(=O)NC2CCNC2=O)c2ccccc2C)nn1-c1ccccc1F (stereo partly drawn) [Example 931, 1-(2-Fluoro-phenyl)-5-methoxy-1H-pyrazole-3-carboxylic acid [(S)-2-(2-oxo-pyrrolidin-3-ylcarbamoyl)-1-o-tolyl-ethyl]-amide] |
| < 100 | O=C(O)CC(NC(=O)c1cc(O)n(-c2ccccc2Cl)n1)c1ccc(-c2ccccn2)cc1 (stereo not drawn) [Example 506, 3-{[1-(2-Chloro-phenyl)-5-hydroxy-1H-pyrazole-3-carbonyl]-amino}-3-(4-pyridin-2-yl-phenyl)-propionic acid] |
| 1000 to 30000 | COc1cc(C(=O)N[C@@H](CC(=O)NCc2ccncc2)c2ccccc2C)nn1-c1ccccc1F [Example 916, 1-(2-Fluoro-phenyl)-5-methoxy-1H-pyrazole-3-carboxylic acid {(S)-2-[(pyridin-4-ylmethyl)-carbamoyl]-1-o-tolyl-ethyl}-amide] |
